Source: patent US8530404B2, “Compounds and methods for treatment of cancer” (FibroGen, Inc., priority 2005, dated 2013)

Assays:
OVCAR3 ovarian tumors = experiment: Subcutaneous OVCAR3 ovarian tumor xenograft in SCID mice (Example 7); assay type: in vivo, mouse; conditions: 60 mg/kg; study end (day 29); FIG. 2
Protocol: The experiment was conducted essentially as described above in Example 3, except that the tumors of GFP-transfected H460 cells were replaced with OVCAR3 ovarian tumors. […] FIG. 2 is a Kruskal-Wallis box plot. The central bar within each box indicates the median value for the group, the limits of the various boxes and whiskers indicate group quartiles within the total distribution of values determined in this study.

HCT116-GFP colon tumors = experiment: Orthotopically implanted human HCT116-GFP colon tumor mouse xenograft (Example 4); assay type: in vivo
Protocol: Procedures were carried out as described above for Example 3, except that the tumors of GFP-transfected H-460 cells were replaced with HCT116-GFP colon tumors, and surgical orthotopic implantation was directly into colon tissue.
The HCT116 tumor model used here is a well-characterized representative colon xenograft model. The isolation of the human HCT116 tumor cell line from a human colon carcinoma has been described. (Brattain et al (1981) Cancer Res 41:1751-1756.) To aid in the detection of tumors and metastases, HCT116 cells were transduced with genes directing the expression of fluorescent proteins (e.g., HCT116-GFP). The use of fluorescent HCT116-derived tumors in similar studies has been described previously. (Ross et al (2000) Nat Genet 24:227-235.)
HCT116-GFP tumor fragments harvested from the stock animals were transplanted into animals by surgical orthotopic implantation (SOI) as follows. The animals were anesthetized with isoflurane and the surgical area was sterilized using iodine and alcohol. After proper exposure of the colon following a lower midline abdominal incision, the serosa of the colon was removed and two pieces of 1 mm^3 tumor fragments per mouse were implanted. An 8-0 surgical suture was used to penetrate these small tumor pieces and suture them on the wall of the intestine. The intestine was then returned to the abdominal cavity. The incision in the abdominal wall was closed with a 6-0 surgical suture in one layer. The animals were kept under isoflurane anesthesia during surgery. All procedures of the operation described above were performed under a 7× magnification microscope (Olympus). Animals were kept in a barrier facility under HEPA filtration.
Administration of Compound A or 5-FU (5-Flurouracil) to the animals was initiated three days following tumor transplantation. 5-FU, a chemotherapeutic agent used as a positive control, was administered by intraperitoneal injection (60 mg/kg) at four day intervals for a total of three doses. Compound A was administered at either 20 mg/kg or 60 mg/kg three times per week. Tumor volumes were measured at day 15, day 22, and day 29.

[1] = Complete blood counts and reticulocyte analysis in H-460 xenograft mice (Example 1); assay type: in vivo, mouse; conditions: study end
Protocol: Sizes of the primary tumors were measured through the skin with calipers once per week. Tumor volumes were calculated by the formula V═(W^2*L)/2. Body weight of the mice in each group was also measured once per week during the experimental period. All animals were sacrificed following thirty-two days of treatment. Primary tumors were excised and weighed on an electronic balance. Blood samples were taken during terminal sacrifice and placed in microhematocrit tubes containing EDTA. Complete Blood Counts (CBC) and reticulocyte analysis were performed with the Cell Dyn 3700 analyzer (Abbott Diagnostics), as described by the manufacturer.

BNIP3 gene expression = BNIP3 gene expression in Kelly neuroblastoma cells; assay type: cell-based; conditions: Kelly, read-out: fold-increase in BNIP3 mRNA expression
Protocol: (§1) To identify compounds useful in the methods of the present invention, the following studies were performed. The effect of compounds of the present invention on expression of various genes associated with anti-tumor activity (e.g., genes having anti-proliferative activity, genes having pro-apoptotic activity, genes having anti-tumor activity, etc.). In these experiments, the effect of compounds on BNIP3, BNIP3L, NDRG1, CDKN1C, and REDD1/RTP801 gene expression in various types of cultured tumor cells line was examined, including Hep3B cells (human hepatocellular carcinoma), Kelly neuroblastoma cells, and MCF7 cells (human breast cancer)
The effects of various compounds of the present invention on the expression of genes associated with tumor growth and progression were examined in Kelly neuroblastoma cells as follows. Kelly neuroblastoma cells were grown in RPMI media. For each experiment, Kelly neuroblastoma cells were added to 96-well tissue culture plates (approximately 40,000 cells per well) such that the plated cells reached confluence the following day. On the following day, the cells were washed and the media replaced with RPMI containing 0.5% FBS. Various compounds of the present invention were added to the cultured cells to a final concentration of 20 μM, and the cells cultured for an additional 20-24 hours. DMSO (0.5%) was added to control cell cultures.
RNA was isolated from the Kelly neuroblastoma cells using a commercial kit and used for the preparation of cDNA. BNIP3, CDKN1C, and 18S RNA levels were measured using commercial kits (18S, Applied Biosystems cat#4319413E); BNIP3, Applied Biosystems cat#HS00969293 MH). RNA levels for BNIP3 and CDKN1C were normalized to that of 18S RNA and is presented as fold-change compared to that observed in DMSO control cultures. Kelly cell NDRG1 and BNIP3L mRNA levels were measured by Affymetrix microarray in a separate study. Cells were harvested after 6 hours incubation with 20 μM test compound or DMSO (0.5%) as control. RNA was isolated and labeled probes were prepared and hybridized to U133 Plus 2.0 Affymetrix microarrays. Changes in gene expression levels are presented as fold change compared to that of control (0.5% DMSO-treated) cultures.

BNIP3L gene expression = BNIP3L gene expression in Kelly neuroblastoma cells (Affymetrix microarray); assay type: cell-based; conditions: 20 μM, 6 hours, vs 0.5% DMSO control
Protocol: as §1
(§2) The effects of various compounds of the present invention on the expression of genes associated with tumor growth and progression were examined in Kelly neuroblastoma cells as follows. Kelly neuroblastoma cells were grown in RPMI media. […]
(§3) RNA was isolated from the Kelly neuroblastoma cells using a commercial kit and used for the preparation of cDNA. BNIP3, CDKN1C, and 18S RNA levels were measured using commercial kits (18S, Applied Biosystems cat#4319413E); BNIP3, Applied Biosystems cat#HS00969293 MH). […] Kelly cell NDRG1 and BNIP3L mRNA levels were measured by Affymetrix microarray in a separate study. […]

NDRG1 gene expression = NDRG1 gene expression in Kelly neuroblastoma cells (Affymetrix microarray); assay type: cell-based; conditions: 20 μM, 6 hours, vs 0.5% DMSO control
Protocol: as §1, §2, §3

With `O=C(O)CNC(=O)c1nc(Cl)c2ccccc2c1O` [Compound A, [(1-Chloro-4-hydroxy-isoquinoline-3-carbonyl)-amino]-acetic acid] the “reduction of median tumor volume compared to vehicle-treated control” value (OVCAR3 ovarian tumors) was 26%, the “mean tumor volume (calipers, mean +/- SD)” value (HCT116-GFP colon tumors; Treatment Day 15, 20 mg/kg three times per week) was 39 +/− 27 and the “mean tumor volume (calipers, mean +/- SD)” value (HCT116-GFP colon tumors; Treatment Day 15, 60 mg/kg three times per week) was 24 +/− 23. For the same molecule, the “mean tumor volume (calipers, mean +/- SD)” value (HCT116-GFP colon tumors; Treatment Day 22, 20 mg/kg three times per week) was 67 +/− 49, the “mean tumor volume (calipers, mean +/- SD)” value (HCT116-GFP colon tumors; Treatment Day 22, 60 mg/kg three times per week) was 45 +/− 38 and the “mean tumor volume (calipers, mean +/- SD)” value (HCT116-GFP colon tumors; Treatment Day 29, 20 mg/kg three times per week) was 197 +/− 158. For the same molecule, the “mean tumor volume (calipers, mean +/- SD)” value (HCT116-GFP colon tumors; Treatment Day 29, 60 mg/kg three times per week) was 152 +/− 125.
With `C[C@H](NC(=O)c1ncc2cc(Oc3ccccc3)ccc2c1O)C(=O)O` [Compound B, (S)-2-[(4-Hydroxy-7-phenoxy-isoquinoline-3-carbonyl)-amino]-propionic acid] the “Abs Retic (reticulocyte count)” value ([1]; 6 mg/kg PO) was 653, the Baso % ([1]; 6 mg/kg PO) was 6.35% and the “Baso (basophils)” value ([1]; 6 mg/kg PO) was 1840 µL⁻¹. The EOS % ([1]; 6 mg/kg PO) was 0.49%, the “Eos (eosinophil count)” value ([1]; 6 mg/kg PO) was 80 µL⁻¹ and the “HCT (hematocrit)” value ([1]; 6 mg/kg PO) was 37.7%. The “HGB (hemoglobin)” value ([1]; 6 mg/kg PO) was 12.7 g/dL, the “IRF (immature RET fraction)” value ([1]; 6 mg/kg PO) was 0.64 and the Lymph % ([1]; 6 mg/kg PO) was 18.3%. For the same molecule, the “Lymph (lymphocytes)” value ([1]; 6 mg/kg PO) was 4700 µL⁻¹, the “MCH (mean corpuscular hemoglobin)” value ([1]; 6 mg/kg PO) was 14.6 pg and the “MCHC (MCH concentration)” value ([1]; 6 mg/kg PO) was 33.8 g/dL. The “MCV (mean corpuscular volume)” value ([1]; 6 mg/kg PO) was 43.2 fL, the Mono % ([1]; 6 mg/kg PO) was 7.61% and the “Mono (monocytes)” value ([1]; 6 mg/kg PO) was 2370 µL⁻¹. The Neut % ([1]; 6 mg/kg PO) was 67.5%, the “Neut (neutrophils)” value ([1]; 6 mg/kg PO) was 18400 µL⁻¹ and the “PLAT (platelets)” value ([1]; 6 mg/kg PO) was 1.536e+06 µL⁻¹. For the same molecule, the “RBC (red blood cells)” value ([1]; 6 mg/kg PO) was 8.71e+06 µL⁻¹, the “RDW (RBC distribution width)” value ([1]; 6 mg/kg PO) was 21.4% and the “RET (reticulocytes)” value ([1]; 6 mg/kg PO) was 7.5%. For the same molecule, the “WBC (white blood cells)” value ([1]; 6 mg/kg PO) was 27300 µL⁻¹, the “Abs Retic (reticulocyte count)” value ([1]; 20 mg/kg PO) was 552 and the Baso % ([1]; 20 mg/kg PO) was 4.52%. The “Baso (basophils)” value ([1]; 20 mg/kg PO) was 780 µL⁻¹, the EOS % ([1]; 20 mg/kg PO) was 0.44% and the “Eos (eosinophil count)” value ([1]; 20 mg/kg PO) was 70 µL⁻¹. The “HCT (hematocrit)” value ([1]; 20 mg/kg PO) was 37.7%, the “HGB (hemoglobin)” value ([1]; 20 mg/kg PO) was 12.7 g/dL and the “IRF (immature RET fraction)” value ([1]; 20 mg/kg PO) was 0.56. The Lymph % ([1]; 20 mg/kg PO) was 14.6%, the “Lymph (lymphocytes)” value ([1]; 20 mg/kg PO) was 2700 µL⁻¹ and the “MCH (mean corpuscular hemoglobin)” value ([1]; 20 mg/kg PO) was 14.5 pg. The “MCHC (MCH concentration)” value ([1]; 20 mg/kg PO) was 33.7 g/dL, the “MCV (mean corpuscular volume)” value ([1]; 20 mg/kg PO) was 43.0 fL and the Mono % ([1]; 20 mg/kg PO) was 4.88%. For the same molecule, the “Mono (monocytes)” value ([1]; 20 mg/kg PO) was 850 µL⁻¹, the Neut % ([1]; 20 mg/kg PO) was 75.6% and the “Neut (neutrophils)” value ([1]; 20 mg/kg PO) was 16500 µL⁻¹. The “PLAT (platelets)” value ([1]; 20 mg/kg PO) was 1.767e+06 µL⁻¹, the “RBC (red blood cells)” value ([1]; 20 mg/kg PO) was 8.78e+06 µL⁻¹ and the “RDW (RBC distribution width)” value ([1]; 20 mg/kg PO) was 21.7%. For the same molecule, the “RET (reticulocytes)” value ([1]; 20 mg/kg PO) was 6.3%, the “WBC (white blood cells)” value ([1]; 20 mg/kg PO) was 20800 µL⁻¹ and the fold induction at 20 µM (BNIP3 gene expression) was 17.2.
With `COc1ccc(Oc2ccc3c(O)c(C(=O)NCC(=O)O)ncc3c2)cc1` [Compound C, {[4-Hydroxy-7-(4-methoxy-phenoxy)-isoquinoline-3-carbonyl]-amino}-acetic acid] the “fold-increase in BNIP3L mRNA expression” value (BNIP3L gene expression) was 5.9 fold, the “Abs Retic (reticulocyte count)” value ([1]; 20 mg/kg PO) was 457 and the Baso % ([1]; 20 mg/kg PO) was 1.47%. For the same molecule, the “Baso (basophils)” value ([1]; 20 mg/kg PO) was 150 µL⁻¹, the EOS % ([1]; 20 mg/kg PO) was 0.47% and the “Eos (eosinophil count)” value ([1]; 20 mg/kg PO) was 40 µL⁻¹. The “HCT (hematocrit)” value ([1]; 20 mg/kg PO) was 41.1%, the “HGB (hemoglobin)” value ([1]; 20 mg/kg PO) was 14.0 g/dL and the “IRF (immature RET fraction)” value ([1]; 20 mg/kg PO) was 0.56. For the same molecule, the Lymph % ([1]; 20 mg/kg PO) was 25.2%, the “Lymph (lymphocytes)” value ([1]; 20 mg/kg PO) was 3000 µL⁻¹ and the “MCH (mean corpuscular hemoglobin)” value ([1]; 20 mg/kg PO) was 14.9 pg. For the same molecule, the “MCHC (MCH concentration)” value ([1]; 20 mg/kg PO) was 34.1 g/dL, the “MCV (mean corpuscular volume)” value ([1]; 20 mg/kg PO) was 43.8 fL and the Mono % ([1]; 20 mg/kg PO) was 2.67%. For the same molecule, the “Mono (monocytes)” value ([1]; 20 mg/kg PO) was 320 µL⁻¹, the Neut % ([1]; 20 mg/kg PO) was 70.2% and the “Neut (neutrophils)” value ([1]; 20 mg/kg PO) was 11400 µL⁻¹. For the same molecule, the “PLAT (platelets)” value ([1]; 20 mg/kg PO) was 1.707e+06 µL⁻¹, the “RBC (red blood cells)” value ([1]; 20 mg/kg PO) was 9.36e+06 µL⁻¹ and the “RDW (RBC distribution width)” value ([1]; 20 mg/kg PO) was 22.3%. The “RET (reticulocytes)” value ([1]; 20 mg/kg PO) was 4.9%, the “WBC (white blood cells)” value ([1]; 20 mg/kg PO) was 14900 µL⁻¹ and the fold induction at 20 µM (BNIP3 gene expression) was 2.6. The “fold-increase in NDRG1 mRNA expression” value (NDRG1 gene expression) was 7.3 fold.
For `Cc1nc(C(=O)NCC(=O)O)c(O)c2ccc(Oc3ccccc3)cc12` [Compound D, [(4-Hydroxy-1-methyl-7-phenoxy-isoquinoline-3-carbonyl)-amino]-acetic acid], the “reduction of median tumor volume compared to vehicle-treated control” value (OVCAR3 ovarian tumors) was 5% and the fold induction at 20 µM (BNIP3 gene expression) was 21.9.
For `O=C(O)CNC(=O)c1ncc2cc(Oc3ccc(F)cc3)ccc2c1O` [Compound E, {[7-(4-fluoro-phenoxy)-4-hydroxy-isoquinoline-3-carbonyl]-amino}-acetic acid], the fold induction at 20 µM (BNIP3 gene expression) was 31.8.
